Test results taken from patent US11104657B2, “Notch inhibitors for use in the treatment of t-cell acute lymphoblastic leukemia” (UNIVERSITÀ DEGLI STUDI DI ROMA “LA SAPIENZA”, priority 2016, dated 2021).
Where two headings read alike, the source gives them in different places.

How the values were obtained:
[1] = test system: activated domain of Notch1 in HaCaT cells; assay: Western blot of N1VAL expression in HaCaT cells; type: cell-based; conditions: 36 hours
Protocol: Laemmli Sample Buffer (161-0737; Bio-Rad Laboratories Inc., Hercules, Calif., USA) was added to each cell pellet. Cells were lysed by ultrasonic sonication and to each mixture 5% 2-mercaptoethanol (161-0710; Bio-Rad Laboratories Inc., Hercules, Calif., USA) was added. Samples were denatured at 100° C. for 5 min and protein mixtures were separated by means of Sodium Dodecyl Sulphate-Polyacrylamide Gel Electrophoresis using 8% acrylamide and transferred onto nitrocellulose membranes. After transfer, the membranes pre-saturated in 5% Blot Dry Fat Milk (1706404; Bio-Rad Laboratories Inc., Hercules, Calif., USA) were incubated for 16 hours at +4° C. with the following primary antibodies diluted at 1:1000 in 5% Dry Fat Milk (1706404; Bio-Rad Laboratories Inc., Hercules, Calif., USA): Notch1Val1744 (2421; Cell Signaling Technology, Beverly, Mass., USA), Notch3 (2889; Cell Signaling Technology, Beverly, Mass., USA) and β-actin (sc-47778; Santa Cruz Biotechnology, Santa Cruz, Calif., USA). Subsequently, filters were incubated for 1 hour at room temperature with the following secondary antibodies: anti-rabbit (sc-2004, Santa Cruz Biotechnology, Santa Cruz, Calif., USA) or anti-mouse (sc-2005, Santa Cruz Biotechnology, Santa Cruz, Calif., USA). […]

[2] = test system: TALL-1 cells; assay: MTS cell proliferation assay, TALL-1; type: cell-based; conditions: Homo sapiens
Protocol: (§1) The cell lines DND41 (ACC 525, DSMZ, Braunschweig, GERMANY), KOPTK1 (RRID: CVCL_4965) were maintained in culture in RPMI-1640 (Gibco, Carlsbad, Calif., USA) with 10% fetal bovine serum. TALL-1 cells (ACC-521: DSMZ, Braunschweig, GERMANY) were cultured in RPMI-1640 (Gibco, Carlsbad, Calif., USA) supplemented with 20% fetal bovine serum, while HaCaT cells (ACC-771: DSMZ, Braunschweig, GERMANY) were maintained in Eagle's culture medium according to Dulbecco (Gibco, Carlsbad, Calif., USA) containing 10% fetal bovine serum. Cells were treated with the naturally-occurring compounds A-H or with compounds 1-17 for times and concentrations indicated in the text. […]
(§2) All treatments were carried out in triplicate, including control treatments. […] To quantify vitality, cells were assayed by the MTS CellTiter 96® AQueous One Solution Cell Proliferation Assay (G3580; Promega, Madison, Wis., USA). Absorbance was detected at 490 nm using the GloMax Multidetection System instrument (Promega, Madison, Wis., USA). Data were collected in the form of absorbance units (ABSs) and standardized to obtain the proliferation rate (MTS) through the equation: % cell proliferation=(ABScell culture+compound−ABSculture medium+compound/(ABScell culture+DMSO−ABSculture medium+DMSO)×100. […]

[3] = test system: KOPTK1 cells; assay: MTS cell proliferation assay, KOPTK1; type: cell-based; conditions: Homo sapiens
Protocol: as §1, §2

[4] = test system: HaCaT keratinocytes; assay: MTS cell proliferation assay, HaCaT keratinocytes; type: cell-based; conditions: Homo sapiens; immortalized non-tumor HaCaT keratinocytes
Protocol: as §1, §2

[5] = test system: DND41 cells; assay: MTS cell proliferation assay (IG50), DND41; type: cell-based, human; conditions: for IC50: Homo sapiens
Protocol: In order to evaluate the biological implications of the compounds, their effect on cell proliferation/vitality was tested by determining the relative concentrations of growth inhibition (IG50) by means of the MTS cellular assay.
The cell lines DND41 (ACC 525, DSMZ, Braunschweig, GERMANY), KOPTK1 (RRID: CVCL_4965) were maintained in culture in RPMI-1640 (Gibco, Carlsbad, Calif., USA) with 10% fetal bovine serum. TALL-1 cells (ACC-521: DSMZ, Braunschweig, GERMANY) were cultured in RPMI-1640 (Gibco, Carlsbad, Calif., USA) supplemented with 20% fetal bovine serum, while HaCaT cells (ACC-771: DSMZ, Braunschweig, GERMANY) were maintained in Eagle's culture medium according to Dulbecco (Gibco, Carlsbad, Calif., USA) containing 10% fetal bovine serum. Cells were treated with the naturally-occurring compounds A-H or with compounds 1-17 for times and concentrations indicated in the text.
Cells were seeded in 96-well plates with a density of 5×10^5 cells/ml (5×10^4 cells per well) and treated for the times and the concentrations of the various compounds, as indicated in the text.
All treatments were carried out in triplicate, including control treatments. All treatment reactions contained a final concentration of 1% DMSO (D5879; Sigma-Aldrich, St Louis, Mo., USA). To quantify vitality, cells were assayed by the MTS CellTiter 96® AQueous One Solution Cell Proliferation Assay (G3580; Promega, Madison, Wis., USA). Absorbance was detected at 490 nm using the GloMax Multidetection System instrument (Promega, Madison, Wis., USA). Data were collected in the form of absorbance units (ABSs) and standardized to obtain the proliferation rate (MTS) through the equation: % cell proliferation=(ABScell culture+compound−ABSculture medium+compound/(ABScell culture+DMSO−ABSculture medium+DMSO)×100.
The 50% inhibition concentration was calculated using the GraphPad Prism software program (GraphPad Software Inc., La Jolla, Calif., USA).

[6] = test system: Notch signaling (N1VAL, N3ICD) in DND41 cells; assay: Western blot of N1VAL and N3ICD expression in DND41 cells; type: cell-based, human; conditions: DND41 cells, 36 hours, 0-50 μM, Western blot
Protocol: In order to identify new naturally-occurring molecular agents able to modulate Notch signaling, the effects on protein expression of the activated domain of Notch1 (N1VAL), and of the intracellular domain of Notch3 (N3ICD), were evaluated in DND41 cells through
Western blotting assays, following treatment for 36 hours with increasing concentrations (0, 1, 5, 10, 20, 50 μM) of the eight molecules (A-H) previously selected. Functional biochemical screening was performed on T-ALL DND41 cells because they are notoriously sensitive to the block of Notch signaling, and characterized by the constitutive and ligand-independent activation of the Notch1 pathway and by the high expression of Notch3. This makes this cell line a useful experimental model for screening putative Notch inhibitors.
In order to investigate the activity and selectivity of action of the 12 synthetic derivatives of butein, and following the screening scheme described in the first design phase, the efficacy of these molecules was analyzed by verifying the effects of 36 hours of treatment at increasing doses on the activation of Notch signaling and on the proliferation in DND41 cells.
Laemmli Sample Buffer (161-0737; Bio-Rad Laboratories Inc., Hercules, Calif., USA) was added to each cell pellet. Cells were lysed by ultrasonic sonication and to each mixture 5% 2-mercaptoethanol (161-0710; Bio-Rad Laboratories Inc., Hercules, Calif., USA) was added. Samples were denatured at 100° C. for 5 min and protein mixtures were separated by means of Sodium Dodecyl Sulphate-Polyacrylamide Gel Electrophoresis using 8% acrylamide and transferred onto nitrocellulose membranes. After transfer, the membranes pre-saturated in 5% Blot Dry Fat Milk (1706404; Bio-Rad Laboratories Inc., Hercules, Calif., USA) were incubated for 16 hours at +4° C. with the following primary antibodies diluted at 1:1000 in 5% Dry Fat Milk (1706404; Bio-Rad Laboratories Inc., Hercules, Calif., USA): Notch1Val1744 (2421; Cell Signaling Technology, Beverly, Mass., USA), Notch3 (2889; Cell Signaling Technology, Beverly, Mass., USA) and β-actin (sc-47778; Santa Cruz Biotechnology, Santa Cruz, Calif., USA). Subsequently, filters were incubated for 1 hour at room temperature with the following secondary antibodies: anti-rabbit (sc-2004, Santa Cruz Biotechnology, Santa Cruz, Calif., USA) or anti-mouse (sc-2005, Santa Cruz Biotechnology, Santa Cruz, Calif., USA). Chemiluminescence signal detection was performed using the ECL Advanced Detection System substrate (RPN2135; E Healthcare UK Limited, Buckinghamshire, UK).

| SMILES | concentration from which expression of the activated domain of Notch1 is significantly reduced [1] | IC50 [2] | IC50 [3] | IC50 [4] | IC50 ([5]; 36-hour treatments in DND41 cells, mean of triplicate experiments ± S.D., Table 2, read-out: IG50 ± S.D.) | IC50 ([5]; DND41 cells, MTS assay, 36 hours of treatment, read-out: IG50 (growth inhibition)) | effect on the expression of N1VAL [6] | effect on cell proliferation ([5]; DND41 cells, doses of up to 50 μM) | IC50 ([5]; DND41, 36 h, read-out: IG50 S.D.) |
| --- | --- | --- | --- | --- | --- | --- | --- | --- | --- |
| COc1ccc(C(=O)/C=C/c2ccc(O)cc2)c(O)c1 [Compound 8, 2′,4-dihydroxy-4′-methoxychalcone] | ≥ 2.5 µM | 0.29 ± 0.02 µM | 0.91 ± 0.06 µM | 48.6 ± 8.06 µM | 1.92 ± 1.04 µM | 1.92 µM |  |  |  |
| CC(=O)C1=C(O)[C@]2(C)C(=CC1=O)Oc1c(C(C)=O)c(O)c(C)c(O)c12 [Compound G, 2,6-diacetyl-7,9-dihydroxy-8,9b-dimethyldibenzofuran-1,3-dione, reference compound] |  |  |  |  |  |  | did not significantly modulate | do not significantly affect cell proliferation | > 50 µM |
